In patent US20100323984A1, “COSMETIC ORAL AND/OR PARENTERAL USE OF GLUCOSAMINE OPTIONALLY IN COMBINATION WITH AT LEAST ONE POLYPHENOL COMPOUND, AND CORRESPONDING COMPOSITION” (LABORATOIRES INNEOV, priority 2006, published 2010):
Where a name gives a salt, the structure may show the parent alone.

What was measured:
[1] = test system: CD44 hyaluronic acid receptor; experiment: Immunohistochemical demonstration of the hyaluronic acid receptor (CD44) in human skin explants kept alive; assay type: cell-based; settings: glucosamine 5 μM in culture medium, D4, scores 0 to 4, control skin 3.4 ± 0.7
Method: For this, a method of culturing was used which allows human skin to be kept alive under metabolic conditions close to in vivo (individuals aged between 50 and 60).
The glucosamine in aqueous solution was added to the culture medium, at the plasma concentration (5 μM), thus making it possible to simulate oral and/or parenteral administration.
Skin fragments were obtained after plastic surgery (mammary or abdominal plasties) from menopausal women (8 different donors from female individuals aged between 50 and 60). The fragments are placed in inserts which are themselves suspended above culture wells. Culture medium is added to the bottom of the wells, the medium passing by slow diffusion between the two compartments by means of a porous membrane (12 μm).
From D0 to D10, glucosamine was added to the culture medium of the skin fragments, every day. For the CD44 analysis, a series of skin samples was taken at D4. A second series was taken at D10 for assaying the collagen synthesis.
The immunodetection was carried out using the CSA kit (DAKO) and visualized in red with AEC (3-amino-9-ethylcarbazole).
Semi-quantitative scores made it possible to specify the intensity of the immunolabeling (scores 0 to 4, from negative to intense). […]

[2] = test system: Human fibroblasts; experiment: Cytotoxicity on fibroblasts (number of cells by DNA fluorimetry); assay type: cell-based; settings: for DNA (number of cells): 48 h, control 2.37 ± 0.33
Method: (§1) Human fibroblasts, harvested by growth from skin explants from a normal young donor, are routinely cultured in DMEM containing 10% of fetal bovine serum (FCS), ascorbic acid (50 μg/ml), penicillin-streptomycin (100 U/ml), referred to in the rest of the report as DMEM-FCS. They are amplified in culture by trypsinizing subconfluent cultures and dividing the dishes 1 in 3. The cultures are used up until passage 14. They are regularly tested for the absence of mycoplasma.
(§2) The glucosamine sulfate is provided in the form of (C6H14NO5)2 S04.2KCl (glucosamine.SO4 titer: 74%) brand Bioiberica, code F0379, Batch 4/0001. A stock solution at 13.6 mg/ml of distilled water is sterilized by filtration through an Acrodisc, and conserved at −20° C.
The fibroblasts are seeded into 24-well multiwells at 25 or 50×10^3 cells/well in DMEM-FCS. After 6 h of attachment, 20 μl of gradual dilutions of the active agents to be tested are added to the cultures. After 24 h of contact, the medium and the active agents are renewed. After 48 h of culture, the medium is removed, and the cell layers are rinsed twice with physiological saline. The number of cells is determined by measuring DNA by the fluorimetric technique using the bisbenzimide reagent in a “Gemini” fluorimeter. The cultures are prepared in triplicate and the measurements are carried out on each culture in duplicate. The control cultures receive the solvent alone.
The toxicity of glucosamine sulfate is tested at 0.5, 1, 5, 10, 20 and 40× the plasma concentration, i.e. 3.4, 6.8, 34, 68, 136 and 272 μg/ml of culture medium.

[3] = test system: MMP3; experiment: MMP3 mRNA by RT-PCR, human dermal fibroblasts in a monolayer on plastic; assay type: cell-based; settings: for MMP3 mRNA: control 1745 ± 31
Method: as §1, §2
The fibroblasts are seeded in DMEM-FCS in a proportion of 2.10^5 cells/disk of 6 cm. After 18 h of attachment, the culture medium is renewed with DMEM-FCS containing:
a) glucosamine sulfate alone • [plasma concentration] 2×(n=2) • 5× (n=2) • 10× (n=2) • control (n=3)
The total amount of RNA present in the solution that will be used to carry out the specific mRNA measurements is determined by measuring the 28S ribosomal RNA. The RNA solution is aliquoted and frozen at −80° C. until the specific mRNAs are assayed by RT-PCR. The mRNA results are expressed in arbitrary units (AU) per unit of 28S. The measurements are carried out in triplicate on two or three separate cultures. • MMP3: stromelysin 1 responsible for the degradation of proteoglycans and of other extracellular matrix constituents and activator of MMP 1

[4] = test system: fibroblasts; experiment: Retracting collagen gel (contractile properties of fibroblasts); assay type: cell-based, human
Method: Human fibroblasts, harvested by growth from skin explants from a normal young donor, are routinely cultured in DMEM containing 10% of fetal bovine serum (FCS), ascorbic acid (50 μg/ml), penicillin-streptomycin (100 U/ml), referred to in the rest of the report as DMEM-FCS. They are amplified in culture by trypsinizing subconfluent cultures and dividing the dishes 1 in 3. The cultures are used up until passage 14. They are regularly tested for the absence of mycoplasma. A sterile solution of purified native collagen is mixed with a suspension of fibroblasts, DMEM-FCS medium and the test products in bacteriological dishes. The mixture is brought to 37° C., this resulting in polymerization of the collagen and the formation of a three-dimensional collagen gel trapping the fibroblasts and floating in the culture medium. The cells attached to the collagen fibers and, under the contractile activity of the cytoskeleton of the fibroblasts, the gel is gradually retracted. This gel is commonly referred to as “Retracting Collagen Gel” or RCG. […]

[5] = test system: Vimentin; experiment: Example 4 clinical study, skin biopsy mRNA by RT-PCR: vimentin; assay type: in vivo, human; settings: oral, equivalent to 250 mg of glucosamine, 8 weeks, women aged 50 to 65, n=8; placebo 1.27 ± 0.33
Method: (§3) Restrictive randomized monocentric double-blind study versus placebo. Fifteen women, aged 50 to 65, were given, as a supplement, for 8 weeks, either a placebo (n=7) or glucosamine sulfate (n=8) equivalent to 250 mg of glucosamine (GLU).
(§4) A skin biopsy 3 mm in diameter (inner face of the arm) was taken before the beginning (T0) and at the end of the 8 weeks of supplementation (T8).
(§5) The total RNA contained in the skin samples was extracted and purified by means of an Ambion Ribo Pure Kit.
(§6) The analysis of the specific dermal markers was carried out by RT-PCR as previously described (Nusgens et al, JID, 116: 853-859, 2001). All the results are expressed in arbitrary units relative to the amount of 28S rRNA.
(§7) The effects of the supplementation (placebo or GLU) were then analyzed by comparing, for each volunteer, the individual expression of the mRNAs at T8 and at T0. A […] ratio was thus calculated. The means of each ratio of the two groups were compared using a Student's test for paired samples.

[6] = test system: Decorin; experiment: Example 4 clinical study, skin biopsy mRNA by RT-PCR: decorin; assay type: in vivo, human; settings: oral, equivalent to 250 mg of glucosamine, 8 weeks, women aged 50 to 65, n=8; placebo 1.11 ± 0.22
Method: as §3, §4, §5, §6, §7

[7] = test system: Fibromodulin; experiment: Example 4 clinical study, skin biopsy mRNA by RT-PCR: fibromodulin; assay type: in vivo, human; settings: oral, equivalent to 250 mg of glucosamine, 8 weeks, women aged 50 to 65, n=8; placebo 1.12 ± 0.16
Method: as §3, §4, §5, §6, §7

[8] = test system: Biglycan; experiment: Example 4 clinical study, skin biopsy mRNA by RT-PCR: biglycan; assay type: in vivo, human; settings: oral, equivalent to 250 mg of glucosamine, 8 weeks, women aged 50 to 65, n=8; placebo 1.10 ± 0.18
Method: as §3, §4, §5, §6, §7

[9] = test system: Hyaluron synthase; experiment: Example 4 clinical study, skin biopsy mRNA by RT-PCR: hyaluron synthase; assay type: in vivo, human; settings: oral, equivalent to 250 mg of glucosamine, 8 weeks, women aged 50 to 65, n=8; placebo 1.51 ± 0.73
Method: as §3, §4, §5, §6, §7

## N[C@@H](C=O)[C@@H](O)[C@H](O)[C@H](O)CO [glucosamine sulfate]
[1]
  CD44 labeling Topography score (mean semi-quantitative score): 3.7 ± 0.5
[2]; 34 μg/ml, p=0.04
  number of cells (rate of proliferation of the fibroblasts): increase in the number of cells
[2]; 0.5x plasma concentration, 3.4 μg/ml
  DNA (number of cells): 2.81 ± 0.41 µg/mL
[2]; 1x plasma concentration, 6.8 μg/ml
  DNA (number of cells): 2.56 ± 0.37 µg/mL
[2]; 5x plasma concentration, 34 μg/ml
  DNA (number of cells): 2.89 ± 0.23 µg/mL
[2]; 10x plasma concentration, 68 μg/ml
  DNA (number of cells): 2.61 ± 0.26 µg/mL
[2]; 20x plasma concentration, 136 μg/ml
  DNA (number of cells): 2.52 ± 0.18 µg/mL
[2]; 40x plasma concentration, 272 μg/ml
  DNA (number of cells): 2.50 ± 0.32 µg/mL
[2]; even at concentrations representing 40× the plasma concentration
  cytotoxic effect: No cytotoxic effect
[3]; 2x plasma concentration
  MMP3 mRNA: 1261 ± 120 UA/28S
[3]; 2x, 5x, 10x plasma concentration, p<0.005
  level of MMP3 mRNA (in words): significant reduction
[3]; 5x plasma concentration
  MMP3 mRNA: 1162 ± 22 UA/28S
[3]; 10x plasma concentration
  MMP3 mRNA: 1060 ± 375 UA/28S
[4]; 2×, 5× and 10× the plasma concentration, 20 000 fibroblasts, 46 h, control 19 mm
  reduction in the diameter of the collagen gel (retraction): 22 mm
[4]; plasma concentration, 25 000 fibroblasts, 18 hours, controls 21 mm
  reduction in diameter of the collagen gel: 23 mm
[5]
  Vimentin mRNA (T8/T0): significantly increases
[6]
  Decorin mRNA (T8/T0): significantly increases
[7]
  Fibromodulin mRNA (T8/T0): significantly increases
[8]
  Biglycan mRNA (T8/T0): significantly increases
[9]
  Hyaluron synthase mRNA (T8/T0): significantly increases
